Values quoted from earlier work, collected in patent US20130317108A1, “DERMATOLOGICAL FOAMS OBTAINED FROM A GEL OR SUSPENSION CONTAINING A COMBINATION OF ADAPALENE AND BENZOYL PEROXIDE” (GALDERMA RESEARCH & DEVELOPMENT, priority 2010, published 2013).
Where two headings read alike, the source gives them in different places.

Columns and labels:
[1] = in presence of benzoyl peroxide formulation
[2] = in suspension (dispersed form) in water and propylene glycol, 90 days of storage
[3] = 40° C.

retinoid degraded ([1]; within 2 hours) [%] | retinoid degraded ([1]; within 24 hours) | Structure (SMILES) | degradation on storage [2] | degradation time (half-life time) ([3]; in PEG 400 (0.5 mg/g)) [days] | degradation time (half-life time) ([3]; in ethanol) [days] | degradation time (half-life time) ([3]; in propylene glycol) [days]
50 | 95% | CC1=C(/C=C/C(C)=C/C=C/C(C)=C/C(=O)O)C(C)(C)CCC1 [tretinoin] | – | – | – | –
– | – | O=C(OOC(=O)c1ccccc1)c1ccccc1 [benzoyl peroxide] | not degraded | 1.4 | 29 | 53
– | no degradation | COc1ccc(-c2ccc3cc(C(=O)O)ccc3c2)cc1C12CC3CC(CC(C3)C1)C2 [adapalene, 6-[3-(1-Adamantyl)-4-methoxyphenyl]-2-naphthoic acid] | – | – | – | –
